Assay results from patent publication US20120309087A1, “CANCER THERAPY” (University Court of The University of Dundee, priority 2006, published 2012).

What was measured:
[1] = target: interaction between RARα and Nrf2 (Homo sapiens, UniProt P10276); experiment: Co-immunoprecipitation of RARα and Nrf2; type: binding; settings: co-immunoprecipitation experiments
[2] = tested on: AKR1C protein in AREc32 cells; experiment: AKR1C protein in AREc32 cells (western blotting); settings: 1 μM ATRA, 10 μM tBHQ; scanning of the Western blots
[3] = tested on: protein complexes binding to an ARE sequence; experiment: Electrophoretic mobility shift assay with ARE probe, AREc32 nuclear extracts; settings: 10 μM tBHQ with 1 μM ATRA, 24 h
[4] = tested on: binding of Nrf2 to an ARE sequence; experiment: Biotinylated ARE oligonucleotide pull-down assay, AREc32 nuclear extracts; settings: 10 μM tBHQ with 1 μM ATRA, 24 h
[5] = tested on: AKR1C mRNA in AREc32 cells; experiment: AKR1C mRNA in AREc32 cells (TaqMan)
[6] = tested on: AKR1C protein in Caco-2 cells; experiment: AKR1C protein in Caco-2 cells (Western blotting); type: cell-based, human; settings: sulforaphane 5 μM, BTB09463 5 μM or Retinoic acid 1 μM, 24 hrs
Experimental: Method: AREc32 cells were seeded out in 96 well plates and treated with DMSO (control), tBHQ (50 μM), tBHQ+BTB09463 (5 μM) or tBHQ+Retinoic acid (1 μM). After 24 hours incubation, cells were washed and lysed before measuring luciferase activity. BTB09463 is 1-{4-[(3,4-dichlorobenzyl)oxy]phenyl}ethan-1-one. […] Method: AREc32 cells were seeded out in 96 well plates and dosed with BTB09463 (2.5, 5 or 10 μM) for 0, 24 or 48 hrs before treatment with tBHQ (50 μM). 24 hours after the addition of tBHQ, cells were washed and lysed before measuring luciferase activity. […] Method: ARE c32 cells were seeded out in 96 well plates and treated with DMSO (control), tBHQ (50 μM), tBHQ+retinoid (0.25, 0.5 and 1 μM). After 24 hours incubation, cells were washed and lysed before measuring luciferase activity. […] See FIG. 16 Method: A. Caco-2 cells were treated with the known ARE-gene inducer sulforaphane (5 μM), either alone or concomitantly with BTB09463 (5 μM) or Retinoic acid (1 μM). After 24 hrs, cell lysates were prepared and Western blotting performed to measure the levels of AKR1C protein. B. MCF7 cells were treated with sulforaphane (5 μM), either alone or concomitantly with BTB09463 (5 μM). After 24 hrs, cell lysates were prepared and Western blots performed to detect the levels of AKR1C and NQO1; GAPDH was used as a loading control in MCF7 cells. […] Method: Caco-2 cells were treated with DMSO (control), BTB09463 (5 μM), sulforaphane (5 μM) or a combination of sulforaphane plus BTB09463. After 24 hrs treatment, cells were harvested and RNA isolated. cDNA for each sample was generated by reverse transcription and subsequently used in real time PCR analysis of gene transcription (TaqMan analysis) for the ARE-driven genes AKR1C1 and NQO1. Data was normalised to the internal control 18S RNA and the relative levels of AKR1C1 and NQO1 calculated using the comparative CT method. […] Method: MCF7 cells were treated with the known ARE-gene inducer sulforaphane (5 μM), either alone or with various retinoids (0.5 μM). After 24 hrs, cell lysates were prepared and Western blots were performed to detect the levels of AKR1C protein present. […] See FIG. 19 Method: ARE reporter cell line AREc23 was seeded into 96 well plates and treated with a previously determined non-toxic concentration of cytotoxic drug. After 24 hours incubation, cells were washed and lysed before measuring luciferase activity. […] See FIG. 20a Method: ARE reporter cell line AREc23 was seeded into 96 well plates and treated with DMSO (control), Carmustine (100 μM), Carmustine+BTB09463 (5 μM) or Carmustine+Retinoic acid (5 μM) After 24 hours incubation, cells were washed and lysed before measuring luciferase activity. […] After 24 hours incubation, cells were washed and lysed before measuring luciferase activity. […]

Nrf2 = experiment: Nuclear Nrf2 level in AREc32 cells (western blot of nuclear extracts); settings: 10 μM tBHQ plus 1 μM ATRA, 24 h
[7] = tested on: ARE-driven luciferase activity in AREc32 cells; experiment: Antagonism of induced ARE-driven luciferase activity in AREc32 cells; type: cell-based, human
[8] = tested on: GST, GCLC and NQO1 in the small intestine; experiment: ARE-regulated proteins in small intestine of mice on vitamin A deficient diet; type: in vivo; settings: wild-type mice; ATRA i.p. 10 mg/kg daily for last 2 weeks of VAD diet
Experimental: Wild-type (nrf2^+/+) and knockout (KO, nrf2^−/−) mice, 8 weeks old, were placed on control or vitamin A deficient (VAD) diet for six weeks as described in “Materials and Methods II”. Portions (5 μg protein) of crude extracts from small intestine of wild-type and KO mice were subjected to Western blotting with specific antibodies against NQO1, GstM5, GstA1/2 and GCLC. Each lane contains a sample from an individual mouse. […] These animals were sacrificed and immunoblotting for GST, GCLC and NQO1 performed as before.
Homozygous Nrf2 KO mice and mouse genotyping were as described previously (Itoh et al., 1997). Two month old, C57BL/6 nrf2^−/− and nrf2^+/+ male mice were used in this study. Animals were maintained in a 12-h light-dark cycle, with free access to food and water. The mice were weighed daily during the experiment period. All animal procedures were carried out under UK Home Office license and after gaining local ethical committee approval.
Two feeding experiments were carried out. In Experiment 1, at the first stage, which lasted for four weeks, Nrf2 (+/+) mice were maintained on a retinoic acid deficient VAD diet (Special Diet Services, Witham, Essex, UK). […] In experiment 2, Nrf2 (−/−) mice were maintained on control or VAD diet for six weeks. […]

[9] = tested on: AKR1C1, NQO1, GCLC, GCLM mRNA in A549 cells; experiment: Constitutive mRNA of ARE-driven genes in A549 cells (Taqman); type: cell-based, human; settings: 24 hrs
[10] = 1 μM ATRA with 10 μM tBHQ, acrolein, NF or Sul, 24 h

Sequence of interaction between RARα and Nrf2 (P10276 whole entry): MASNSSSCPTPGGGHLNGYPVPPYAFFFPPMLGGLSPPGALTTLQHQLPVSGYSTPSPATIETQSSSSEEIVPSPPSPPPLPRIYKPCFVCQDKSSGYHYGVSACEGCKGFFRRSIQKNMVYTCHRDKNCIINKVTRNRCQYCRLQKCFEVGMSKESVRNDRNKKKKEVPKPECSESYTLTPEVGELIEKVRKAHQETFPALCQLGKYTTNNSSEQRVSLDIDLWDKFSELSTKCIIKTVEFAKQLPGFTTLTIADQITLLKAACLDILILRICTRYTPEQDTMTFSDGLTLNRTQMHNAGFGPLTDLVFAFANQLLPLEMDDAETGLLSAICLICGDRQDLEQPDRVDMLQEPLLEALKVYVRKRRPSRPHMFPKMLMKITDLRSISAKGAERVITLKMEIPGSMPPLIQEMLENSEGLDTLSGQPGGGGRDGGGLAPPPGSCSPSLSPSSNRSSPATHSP
Sequence of interaction between RARα and Nrf2 (Q16236 whole entry partner): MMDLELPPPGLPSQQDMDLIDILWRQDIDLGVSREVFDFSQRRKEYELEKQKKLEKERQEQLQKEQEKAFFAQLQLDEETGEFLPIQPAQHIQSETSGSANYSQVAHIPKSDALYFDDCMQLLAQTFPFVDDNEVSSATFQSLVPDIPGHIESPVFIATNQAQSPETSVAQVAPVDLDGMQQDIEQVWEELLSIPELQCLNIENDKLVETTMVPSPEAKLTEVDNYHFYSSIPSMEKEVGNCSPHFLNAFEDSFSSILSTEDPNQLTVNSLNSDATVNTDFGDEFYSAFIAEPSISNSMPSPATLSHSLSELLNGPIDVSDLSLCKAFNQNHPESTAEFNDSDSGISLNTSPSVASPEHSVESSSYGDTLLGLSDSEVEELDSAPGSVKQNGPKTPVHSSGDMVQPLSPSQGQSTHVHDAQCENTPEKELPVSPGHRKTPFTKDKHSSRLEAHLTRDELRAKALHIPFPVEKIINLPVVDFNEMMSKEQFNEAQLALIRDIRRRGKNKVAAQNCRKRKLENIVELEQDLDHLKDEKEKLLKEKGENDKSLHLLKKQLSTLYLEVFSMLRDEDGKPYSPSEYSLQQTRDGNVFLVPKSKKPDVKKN

association between RARα and Nrf2 [1]: greatly promoted | binding of complexes to core ARE sequence (EMSA) [3]: binding was reduced | binding of Nrf2 to the ARE (pull-down) [4]: inhibited the binding of Nrf2 to the ARE
Structure (SMILES): CC1=C(/C=C/C(C)=C/C=C/C(C)=C/C(=O)O)C(C)(C)CCC1 [ATRA, all trans-retinoic acid]
reduction of tBHQ-induced AKR1C protein [2]: approximately 50% | inhibition of tBHQ induction of AKR1C1 mRNA ([5]; 1 μM ATRA, after subtracting the DMSO control): approximately 85% | induction of AKR1C1 mRNA by tBHQ on co-incubation ([5]; 10 μM tBHQ plus 1 μM ATRA, 24 h): 3 fold | sulforaphane induction of AKR1C protein [6]: dramatically reduced | nuclear translocation / nuclear concentration of Nrf2 (Nrf2): did not block nuclear translocation of Nrf2 | effect on increase in ARE-driven luciferase activity by inducing agents [7, 10]: significantly attenuated | luciferase activity following subtraction of the DMSO control [7, 10]: almost complete ablation of luciferase activity | induction of ARE-driven luciferase activity by anticancer drugs ([7]; 1 μM ATRA with cisplatin, melphalan, chlorambucil or BCNU, no BSO): prevented | ARE responses to anticancer drugs after BSO pre-treatment ([7]; 1 μM ATRA, 50 μM BSO pre-treatment, after subtraction of DMSO control): reduced almost to background levels | lag phase before increase of luciferase activity ([7]; 10 μM tBHQ plus 1 μM ATRA simultaneously): 16 h | suppression of tBHQ induction of luciferase ([7]; 50 μM tBHQ + 1 μM Retinoic acid, 24 h): ~75% | carmustine-mediated induction of luciferase activity ([7]; Carmustine 100 μM + BTB09463 5 μM or Retinoic acid 5 μM, 24 hours): completely suppress | induction of ARE-driven genes (GstM5, GCLC, NQO1, GstA1) by VAD diet in the small intestine [8]: almost completely reversed | constitutive expression of AKR1C1 mRNA ([9]; BTB09463 1, 5, 20, 40 μmol/l or retinoids 0.050, 0.20, 0.50, 2.0 μmol/l): inhibited the constitutive expression of AKR1C1 in a concentration-dependent manner | constitutive mRNA levels of NQO1, GCLC and GCLM ([9]; BTB09463 1-40 μmol/l or retinoic acid 0.050-2.0 μmol/l): repressed the constitutive mRNA levels of NQO1, GCLC and GCLM in a concentration-dependent manner
